Measured values taken from patent US11332459B2 (TEIJIN PHARMA LIMITED, priority 2017, dated 2022).
Where a name gives a salt, the structure may show the parent alone.

Target: T1, human TRPC6 (Homo sapiens, UniProt Q9Y210)
T1 construct: expressed in transfected cells
T1 sequence (Q9Y210 1-931): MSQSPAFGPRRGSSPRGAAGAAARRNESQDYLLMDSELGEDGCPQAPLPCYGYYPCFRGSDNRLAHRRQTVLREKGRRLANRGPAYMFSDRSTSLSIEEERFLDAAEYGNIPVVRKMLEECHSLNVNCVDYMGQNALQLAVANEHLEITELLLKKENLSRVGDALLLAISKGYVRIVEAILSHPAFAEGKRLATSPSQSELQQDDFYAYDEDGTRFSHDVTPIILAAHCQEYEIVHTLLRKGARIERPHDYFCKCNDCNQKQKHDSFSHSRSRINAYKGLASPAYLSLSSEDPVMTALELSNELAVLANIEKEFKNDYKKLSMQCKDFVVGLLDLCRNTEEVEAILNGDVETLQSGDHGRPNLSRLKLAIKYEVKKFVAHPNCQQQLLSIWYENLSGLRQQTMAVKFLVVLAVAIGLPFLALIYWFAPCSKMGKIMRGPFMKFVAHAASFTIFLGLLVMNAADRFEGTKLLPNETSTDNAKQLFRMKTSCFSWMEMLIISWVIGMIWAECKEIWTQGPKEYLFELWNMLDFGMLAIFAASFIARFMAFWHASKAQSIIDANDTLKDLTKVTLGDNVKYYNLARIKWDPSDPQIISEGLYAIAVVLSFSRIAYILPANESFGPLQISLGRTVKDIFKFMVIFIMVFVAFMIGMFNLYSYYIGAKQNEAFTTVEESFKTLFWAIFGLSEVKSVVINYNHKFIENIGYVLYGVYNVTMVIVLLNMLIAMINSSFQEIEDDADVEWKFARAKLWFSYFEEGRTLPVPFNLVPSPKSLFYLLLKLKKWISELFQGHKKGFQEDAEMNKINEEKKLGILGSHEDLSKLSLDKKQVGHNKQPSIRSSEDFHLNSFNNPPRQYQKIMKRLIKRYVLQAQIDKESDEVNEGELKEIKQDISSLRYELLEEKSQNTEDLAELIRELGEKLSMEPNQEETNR
Assay: TRPC6 calcium flux assay (FLIPR, OAG-stimulated calcium influx)
Assay type: cell-based
Conditions: HEK293 cells stably transfected with human TRPC6, read-out: hTRPC6 Potency
Procedure, shortened: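 IC50 derived by plotting background-corrected peak fluorescence (180 s window, normalized to OAG-triggered signal vs buffer) against dose. Stable human TRPC6 HEK293 line was dye-loaded, exposed to compound 25 min, then challenged with 50 uM final OAG in 2 mM Ca2+ HEPES buffer pH 7.2, 0.5% DMSO.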

Molecule	IC50
N#Cc1ccc(Cn2c(N3CCC4(CCCC4N)C3)nc3ccccc32)cc1 (stereo not shown) [Example 168, 4-((2-(6-amino-2-azaspiro[4.4]nonan-2-yl)-1H-benzo[d]imidazol-1-yl)methyl)benzonitrile]	1600 nM
Cc1cc2c(cc1Cl)nc(N1CC[C@@H](F)[C@H](N)C1)n2Cc1ccc(C#N)cn1 [Example 113, 6-((2-((3R,4R)-3-amino-4-fluoro-1-piperidinyl)-5-chloro-6-methyl-1H-benzimidazol-1-yl)methyl)-3-pyridinecarbonitrile]	0.286 nM
N#Cc1ccc(Cn2c(N3CC[C@@H](O)[C@H](N)C3)nc3cc(F)ccc32)nc1 [Example 208, 6-((2-((3R,4R)-3-amino-4-hydroxypiperidin-1-yl)-5-fluoro-1H-benzo[d]imidazol-1-yl)methyl)nicotinonitrile]	47.7 nM
N[C@@H]1CN(c2nc3cc(F)c(F)cc3n2Cc2ccc(F)cn2)CC[C@H]1F [Example 228, (3R,4R)-1-(5,6-difluoro-1-((5-fluoropyridin-2-yl)methyl)-1H-benzo[d]imidazol-2-yl)-4-fluoropiperidin-3-amine hydrochloride]	0.32 nM
C[C@@H](c1ccc(Cl)cn1)n1c(N2CC[C@@H](F)[C@H](N)C2)nc2ccc(Cl)cc21 [Example 222, (3R,4R)-1-(6-chloro-1-((S)-1-(5-chloropyridin-2-yl)ethyl)-1H-benzo[d]imidazol-2-yl)-4-fluoropiperidin-3-amine hydrochloride]	2.04 nM
4-((2-((3R,4R)-3-amino-4-hydroxypiperidin-1-yl)-1H-benzo[d]imidazol-1-yl)methyl)benzonitrile compound with 4-((2-((3S,4S)-3-amino-4-hydroxypiperidin-1-yl)-1H-benzo[d]imidazol-1-yl)methyl)benzonitrile (1:1) dihydrochloride [Example 155]	16.2 nM
C[C@H](C#N)N(C)C(=O)Cn1c(N2CC[C@@H](F)[C@H](N)C2)nc2cc(F)c(F)cc21 [Example 603, 2-(2-((3R,4R)-3-amino-4-fluoropiperidin-1-yl)-5,6-difluoro-1H-benzo[d]imidazol-1-yl)-N-((R)-1-cyanoethyl)-N-methylacetamide]	6.73 nM
N[C@@H]1CN(c2nc3cc(F)cc(F)c3n2Cc2ccc(F)cn2)CC[C@H]1F [Example 32, (3R,4R)-1-(5,7-difluoro-1-((5-fluoropyridin-2-yl)methyl)-1H-benzo[d]imidazol-2-yl)-4-fluoropiperidin-3-amine]	47.2 nM
CN(CC(F)(F)F)C(=O)Cn1c(N2CCC(F)(CN)C2)nc2ccc(F)cc21 (stereo not shown) [Example 486, 2-(2-(3-(aminomethyl)-3-fluoropyrrolidin-1-yl)-6-fluoro-1H-benzo[d]imidazol-1-yl)-N-methyl-N-(2,2,2-trifluoroethyl)acetamide]	> 1750 nM
CN(C)C(=O)Cn1c(N2CC[C@@H](F)[C@H](N)C2)nc2cc(Cl)ccc21 [Example 506, 2-(2-((3R,4R)-3-amino-4-fluoropiperidin-1-yl)-5-chloro-1H-benzo[d]imidazol-1-yl)-N,N-dimethylacetamide]	76.6 nM
C[C@@H](NC(=O)Cn1c(N2CC[C@@H](F)[C@H](N)C2)nc2ccc(F)cc21)c1ccccn1 [Example 674, 2-(2-((3R,4R)-3-amino-4-fluoropiperidin-1-yl)-6-fluoro-1H-benzo[d]imidazol-1-yl)-N-((R)-1-(pyridin-2-yl)ethyl)acetamide]	> 1750 nM
N#Cc1ccc(Cn2c(N3CCC(F)(F)[C@H](N)C3)nc3c(Cl)cccc32)cc1 [Example 407, (R)-4-((2-(3-amino-4,4-difluoropiperidin-1-yl)-4-chloro-1H-benzo[d]imidazol-1-yl)methyl)benzonitrile]	5.85 nM
C[C@H](c1ncc(Cl)cn1)n1c(N2CC[C@@H](F)[C@H](N)C2)nc2cc(F)c(F)cc21 [Example 498, (3R,4R)-1-(1-((R)-1-(5-chloropyrimidin-2-yl)ethyl)-5,6-difluoro-1H-benzo[d]imidazol-2-yl)-4-fluoropiperidin-3-amine]	1.88 nM
CC(N(C)C(=O)Cn1c(N2CC[C@@H](F)[C@H](N)C2)nc2cc(F)c(F)cc21)C(F)(F)F (mixture of isomers) [Example 614, 2-(2-((3R,4R)-3-amino-4-fluoropiperidin-1-yl)-5,6-difluoro-1H-benzo[d]imidazol-1-yl)-N-methyl-N-(1,1,1-trifluoropropan-2-yl)acetamide]	24.8 nM
N#Cc1ccc(Cn2c(N3C[C@@H]4C[C@]4(CN)C3)nc3ccccc32)nc1 [Example 75, 6-((2-((1S,5R)-1-(aminomethyl)-3-azabicyclo[3.1.0]hexan-3-yl)-1H-benzo[d]imidazol-1-yl)methyl)nicotinonitrile hydrochloride]	81.4 nM
N[C@@H]1CN(c2nc3ncc(F)cc3n2Cc2ncc(Cl)cn2)CC[C@H]1F [Example 555, (3R,4R)-1-(1-((5-chloropyrimidin-2-yl)methyl)-6-fluoro-1H-imidazo[4,5-b]pyridin-2-yl)-4-fluoropiperidin-3-amine]	11.6 nM
N[C@@H]1CN(c2nc3cc(F)c(F)cc3n2Cc2ccc(F)c(Cl)c2)CC[C@H]1F [Example 349, (3R,4R)-1-(1-(3-chloro-4-fluorobenzyl)-5,6-difluoro-1H-benzimidazol-2-yl)-4-fluoro-3-piperidinamine]	215 nM
N#Cc1ccc(Cn2c(N3CCC4CCN[C@H]4C3)nc3ccccc32)nc1 (stereo partly drawn) [Example 26, 6-((2-((3aS,7aR)-hexahydro-1H-pyrrolo[2,3-c]pyridin-6(2H)-yl)-1H-benzo[d]imidazol-1-yl)methyl)nicotinointrile]	161 nM
N[C@@H]1CN(c2nc3cc(F)c(F)cc3n2[C@@H]2CCN(c3ccc(Cl)cc3)C2=O)CC[C@H]1F [Example 248, (R)-3-(2-((3R,4R)-3-amino-4-fluoropiperidin-1-yl)-5,6-difluoro-1H-benzo[d]imidazol-1-yl)-1-(4-chlorophenyl)pyrrolidin-2-one]	5.07 nM
NC(=O)C1CCCN(C(=O)Cn2c(N3CC[C@@H](F)[C@H](N)C3)nc3cc(F)c(F)cc32)C1 (mixture of isomers) [Example 530, 1-(2-(2-((3R,4R)-3-amino-4-fluoropiperidin-1-yl)-5,6-difluoro-1H-benzo[d]imidazol-1-yl)acetyl)piperidine-3-carboxamide]	> 3750 nM
CO[C@H]1CCN(c2nc3ccc(F)cc3n2Cc2ncc(Cl)cn2)C[C@H]1N [Example 467, (3R,4S)-1-(1-((5-chloropyrimidin-2-yl)methyl)-6-fluoro-1H-benzo[d]imidazol-2-yl)-4-methoxypiperidin-3-amine]	123 nM
COc1ccc2nc(N3CCC[C@@H](N)C3)n(Cc3ccc(C#N)cc3)c2c1 [Example 185, (R)-4-((2-(3-aminopiperidin-1-yl)-6-methoxy-1H-benzo[d]imidazol-1-yl)methyl)benzonitrile]	3.58 nM
N#Cc1ccc2c(c1)nc(N1CC[C@@H](F)[C@H](N)C1)n2Cc1ncc(F)cn1 [Example 197, 2-((3R,4R)-3-amino-4-fluoropiperidin-1-yl)-1-((5-fluoropyrimidin-2-yl)methyl)-1H-benzo[d]imidazole-5-carbonitrile]	256 nM
COc1ccc2nc(N3CC[C@H](F)[C@H](N)C3)n(Cc3ccc(C#N)cn3)c2c1 [Example 147, 6-((2-((3R,4S)-3-amino-4-fluoropiperidin-1-yl)-6-methoxy-1H-benzo[d]imidazol-1-yl)methyl)nicotinonitrile hydrochloride]	0.433 nM
COc1ccc2nc(N3CCC(F)(F)[C@H](N)C3)n(Cc3ccc(C#N)cc3)c2c1 [Example 406, (R)-4-((2-(3-amino-4,4-difluoropiperidin-1-yl)-6-methoxy-1H-benzo[d]imidazol-1-yl)methyl)benzonitrile]	0.447 nM
C[C@H](c1cccc(Cl)c1)n1c(N2CC[C@@H](F)[C@H](N)C2)nc2cc(F)c(F)cc21 [Example 326, (3R,4R)-1-(1-((1R)-1-(3-chlorophenyl)ethyl)-5,6-difluoro-1H-benzimidazol-2-yl)-4-fluoro-3-piperidinamine]	2930 nM
N[C@@H]1CN(c2nc3cc(F)ccc3n2Cc2nnc(C(F)F)s2)CC[C@H]1F [Example 587, (3R,4R)-1-(1-((5-(difluoromethyl)-1,3,4-thiadiazol-2-yl)methyl)-5-fluoro-1H-benzo[d]imidazol-2-yl)-4-fluoropiperidin-3-amine]	765 nM
CCC1COCCN1C(=O)Cn1c(N2CC[C@@H](F)[C@H](N)C2)nc2ccc(F)cc21 (stereo partly drawn) [Example 684, 2-(2-((3R,4R)-3-amino-4-fluoropiperidin-1-yl)-6-fluoro-1H-benzo[d]imidazol-1-yl)-1-(3-ethylmorpholino)ethan-1-one]	524 nM
